Measured values: patent US11912701B2, “Protein kinase inhibitors for promoting liver regeneration or reducing or preventing hepatocyte death” (HEPAREGENIX GMBH, priority 2018, dated 2024)

Key:
Type in all cases: biochemical
MKK4 = target: T1, MKK4 (Homo sapiens, UniProt P45985); test: 33PanQinase enzyme assay, MKK4; conditions: assay 'IC50'; read-out: Potency MKK4 (IC50)
T1 construct: purchased ProQinase GmbH, Freiburg, Germany (33PanQinase Assay Service)
T1 sequence (P45985 1-399): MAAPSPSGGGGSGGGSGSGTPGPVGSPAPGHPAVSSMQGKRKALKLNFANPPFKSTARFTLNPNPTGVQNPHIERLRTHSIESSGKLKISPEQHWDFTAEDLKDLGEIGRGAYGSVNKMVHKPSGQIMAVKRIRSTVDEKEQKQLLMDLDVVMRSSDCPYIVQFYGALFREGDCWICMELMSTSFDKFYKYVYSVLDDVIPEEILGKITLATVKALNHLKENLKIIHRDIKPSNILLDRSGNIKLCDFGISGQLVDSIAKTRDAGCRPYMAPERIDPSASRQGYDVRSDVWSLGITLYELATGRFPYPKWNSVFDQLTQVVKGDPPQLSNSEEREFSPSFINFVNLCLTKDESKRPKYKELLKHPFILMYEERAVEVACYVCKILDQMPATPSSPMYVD
Method in brief: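 Inhibition measured as 33Pi transfer to substrate after a 60-min, 30 °C reaction, acid-stopped and scintillation-counted.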

JNK1 = JNK1 (Homo sapiens, UniProt P45983); test: 33PanQinase enzyme assay, JNK1; set-up: purchased ProQinase GmbH, Freiburg, Germany (33PanQinase Assay Service); conditions: ratio IC50(JNK1)/IC50(MKK4)
Sequence of JNK1 (P45983 whole entry): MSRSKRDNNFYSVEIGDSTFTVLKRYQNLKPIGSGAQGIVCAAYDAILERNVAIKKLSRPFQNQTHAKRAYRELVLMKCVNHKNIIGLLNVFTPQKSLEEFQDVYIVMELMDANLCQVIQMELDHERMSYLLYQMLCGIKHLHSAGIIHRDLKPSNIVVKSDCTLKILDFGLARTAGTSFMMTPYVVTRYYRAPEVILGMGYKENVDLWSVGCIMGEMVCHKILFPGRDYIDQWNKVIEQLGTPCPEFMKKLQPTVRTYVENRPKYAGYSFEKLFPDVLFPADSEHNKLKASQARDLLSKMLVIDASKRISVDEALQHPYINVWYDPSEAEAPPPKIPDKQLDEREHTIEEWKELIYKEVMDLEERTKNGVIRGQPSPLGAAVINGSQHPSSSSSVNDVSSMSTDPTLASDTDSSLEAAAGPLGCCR
Method in brief: (§1)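 33Pi incorporation, read by microplate scintillation counting, measured kinase activity after 60 min at 30 °C. Reactions were quenched with 2% (v/v) H3PO4 and washed with 0.9% NaCl. IC50 derived by least-squares fitting; single doses reported as % residual activity.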

MKK7 = target: T2, MKK7 (Homo sapiens, UniProt O14733); test: 33PanQinase enzyme assay, MKK7; set-up: purchased ProQinase GmbH, Freiburg, Germany (33PanQinase Assay Service); conditions: ratio IC50(MKK7)/IC50(MKK4)
T2 sequence (O14733 1-419): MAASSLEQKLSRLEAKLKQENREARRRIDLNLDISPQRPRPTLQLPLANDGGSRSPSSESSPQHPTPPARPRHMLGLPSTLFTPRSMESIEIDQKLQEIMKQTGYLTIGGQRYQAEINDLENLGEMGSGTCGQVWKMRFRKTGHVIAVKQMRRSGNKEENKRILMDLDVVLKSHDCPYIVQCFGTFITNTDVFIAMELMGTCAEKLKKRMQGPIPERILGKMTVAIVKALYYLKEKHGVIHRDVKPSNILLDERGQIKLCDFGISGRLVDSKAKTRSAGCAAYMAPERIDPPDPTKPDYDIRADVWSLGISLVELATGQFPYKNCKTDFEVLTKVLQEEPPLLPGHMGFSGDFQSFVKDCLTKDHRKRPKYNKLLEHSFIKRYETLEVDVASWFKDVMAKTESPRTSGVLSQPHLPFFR
Method in brief: as §1

BRaf = target: T3, BRaf (Homo sapiens, UniProt P15056); test: 33PanQinase enzyme assay, BRaf; conditions: ratio IC50(BRaf)/IC50(MKK4)
T3 construct: purchased ProQinase GmbH, Freiburg, Germany (33PanQinase Assay Service)
T3 sequence (P15056 whole entry, species assumed): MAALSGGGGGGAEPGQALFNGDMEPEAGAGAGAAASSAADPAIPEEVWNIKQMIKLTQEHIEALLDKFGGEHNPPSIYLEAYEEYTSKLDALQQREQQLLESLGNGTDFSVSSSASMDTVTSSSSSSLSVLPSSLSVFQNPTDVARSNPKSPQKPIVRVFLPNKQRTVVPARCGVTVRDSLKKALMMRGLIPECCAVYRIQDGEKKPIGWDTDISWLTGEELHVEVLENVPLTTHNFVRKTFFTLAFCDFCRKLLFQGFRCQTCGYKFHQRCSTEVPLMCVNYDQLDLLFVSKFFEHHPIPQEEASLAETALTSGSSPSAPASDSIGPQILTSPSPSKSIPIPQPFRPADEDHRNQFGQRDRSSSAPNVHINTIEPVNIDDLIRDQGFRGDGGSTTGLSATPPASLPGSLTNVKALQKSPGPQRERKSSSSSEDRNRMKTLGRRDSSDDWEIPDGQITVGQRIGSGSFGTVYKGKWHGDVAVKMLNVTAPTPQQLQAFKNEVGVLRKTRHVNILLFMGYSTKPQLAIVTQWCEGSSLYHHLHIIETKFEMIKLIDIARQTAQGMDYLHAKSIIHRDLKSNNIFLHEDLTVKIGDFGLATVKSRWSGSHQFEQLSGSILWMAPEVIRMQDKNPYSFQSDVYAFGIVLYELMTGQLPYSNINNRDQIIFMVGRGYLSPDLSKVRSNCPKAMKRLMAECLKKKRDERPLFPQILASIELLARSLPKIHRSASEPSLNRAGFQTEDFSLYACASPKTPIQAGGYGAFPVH
Method in brief: as §1

Row | Compound | IC50 (MKK4) [nM] | Selectivity JNK1, IC50(off-target)/IC50(MKK4) (JNK1) | Selectivity IVIKK7, IC50(off-target)/IC50(MKK4) (MKK7) | Selectivity Braf, IC50(off-target)/IC50(MKK4) (BRaf)
1 | CCCS(=O)(=O)Nc1ccc(F)c(C(=O)c2c[nH]c3ncc(N4CCNCC4)cc23)c1F [Example 71, N-(2,4-difluoro-3-(5-(piperazin-1-yl)-1H-pyrrolo[2,3-b]pyridine-3-carbonyl)phenyl)propane-1-sulfonamide] | 1000 to 10000 | ◯ (3 ≥ IC50(off-target)/IC50(MKK4)) | ++ (100 ≥ IC50(off-target)/IC50(MKK4) > 10) | ◯ (3 ≥ IC50(off-target)/IC50(MKK4))
2 | CCCS(=O)(=O)Nc1ccc(F)c(C(=O)c2c[nH]c3ncc(-c4cccc(C)c4)cc23)c1F [Example 114, N-(2,4-difluoro-3-(5-(m-tolyl)-1H-pyrrolo[2,3-b]pyridine-3-carbonyl)phenyl)propane-1-sulfonamide] | 100 to 1000 | + (10 ≥ IC50(off-target)/IC50(MKK4) > 3) | +++ (IC50(off-target)/IC50(MKK4) > 100) | ◯ (3 ≥ IC50(off-target)/IC50(MKK4))
3 | CCCS(=O)(=O)Nc1c(F)ccc(C(=O)c2c[nH]c3ncc(-c4cnc(CC)nc4)cc23)c1F [Example 206, N-(3-(5-(2-ethylpyrimidin-5-yl)-1H-pyrrolo[2,3-b]pyridine-3-carbonyl)-2,6-difluorophenyl)propane-1-sulfonamide] | < 100 | +++ (IC50(off-target)/IC50(MKK4) > 100) | +++ (IC50(off-target)/IC50(MKK4) > 100) | +++ (IC50(off-target)/IC50(MKK4) > 100)
4 | CCCS(=O)(=O)Nc1c(F)ccc(C(=O)c2c[nH]c3ncc(-c4cnc(N5CCN(CCO)CC5)nc4)cc23)c1F [Example 198, N-(2,6-difluoro-3-(5-(2-(4-(2-hydroxyethyl)piperazin-1-yl)pyrimidin-5-yl)-1H-pyrrolo[2,3-b]pyridine-3-carbonyl)phenyl)propane-1-sulfonamide] | 100 to 1000 | ++ (100 ≥ IC50(off-target)/IC50(MKK4) > 10) | +++ (IC50(off-target)/IC50(MKK4) > 100) | ++ (100 ≥ IC50(off-target)/IC50(MKK4) > 10)
5 | CCCS(=O)(=O)Nc1ccc(F)c(C(=O)c2c[nH]c3ncc(-c4cccc(F)c4)cc23)c1F [Example 115, N-(2,4-difluoro-3-(5-(3-fluorophenyl)-1H-pyrrolo[2,3-b]pyridine-3-carbonyl)phenyl)propane-1-sulfonamide] | 100 to 1000 | + (10 ≥ IC50(off-target)/IC50(MKK4) > 3) | +++ (IC50(off-target)/IC50(MKK4) > 100) | ◯ (3 ≥ IC50(off-target)/IC50(MKK4))
6 | CCCS(=O)(=O)Nc1c(F)ccc(C(=O)c2c[nH]c3ncc(-c4cnc(N5CC[C@H](O)C5)nc4)cc23)c1F [Example 203, (S)-N-(2,6-difluoro-3-(5-(2-(3-hydroxypyrrolidin-1-yl)pyrimidin-5-yl)-1H-pyrrolo[2,3-b]pyridine-3-carbonyl)phenyl)propane-1-sulfonamide] | < 100 | +++ (IC50(off-target)/IC50(MKK4) > 100) | +++ (IC50(off-target)/IC50(MKK4) > 100) | ++ (100 ≥ IC50(off-target)/IC50(MKK4) > 10)
7 | CCCS(=O)(=O)Nc1c(F)ccc(C(=O)c2c[nH]c3ncc(-c4ccc(Cl)cc4C)cc23)c1F [Example 225, N-(3-(5-(4-chloro-2-methylphenyl)-1H-pyrrolo[2,3-b]pyridine-3-carbonyl)-2,6-difluorophenyl)propane-1-sulfonamide] | < 100 | ++ (100 ≥ IC50(off-target)/IC50(MKK4) > 10) | +++ (IC50(off-target)/IC50(MKK4) > 100) | +++ (IC50(off-target)/IC50(MKK4) > 100)
8 | CCCS(=O)(=O)Nc1c(F)ccc(C(=O)c2c[nH]c3ncc(-c4cccc(C#N)c4)cc23)c1F [Example 143, N-(3-(5-(3-cyanophenyl)-1-pyrrolo[2,3-b]pyridine-3-carbonyl)-2,6-difluorophenyl)propane-1-sulfonamide] | < 100 | ++ (100 ≥ IC50(off-target)/IC50(MKK4) > 10) | +++ (IC50(off-target)/IC50(MKK4) > 100) | +++ (IC50(off-target)/IC50(MKK4) > 100)
9 | CCCS(=O)(=O)Nc1c(F)ccc(C(=O)c2c[nH]c3ncc(-c4cnc(N5CCOCC5)nc4)cc23)c1F [Example 188, N-(2,6-difluoro-3-(5-(2-morpholinopyrimidin-5-yl)-1H-pyrrolo[2,3-b]pyridine-3-carbonyl)phenyl)propane-1-sulfonamide] | < 100 | +++ (IC50(off-target)/IC50(MKK4) > 100) | +++ (IC50(off-target)/IC50(MKK4) > 100) | +++ (IC50(off-target)/IC50(MKK4) > 100)
10 | CCCS(=O)(=O)Nc1c(F)ccc(C(=O)c2c[nH]c3ncc(C4CCC4)cc23)c1F [Example 239, N-(3-(5-cyclobutyl-1H-pyrrolo[2,3-b]pyridine-3-carbonyl)-2,6-difluorophenyl)propane-1-sulfonamide] | < 100 | ++ (100 ≥ IC50(off-target)/IC50(MKK4) > 10) | +++ (IC50(off-target)/IC50(MKK4) > 100) | +++ (IC50(off-target)/IC50(MKK4) > 100)
11 | CCCS(=O)(=O)Nc1c(F)ccc(C(=O)c2c[nH]c3ncc(-c4ccc(OCC(O)CO)cc4)cc23)c1F (stereo not shown) [Example 154, N-(3-(5-(4-(2,3-dihydroxypropoxy)phenyl)-1H-pyrrolo[2,3-b]pyridine-3-carbonyl)-2,6-difluorophenyl)propane-1-sulfonamide] | < 100 | ++ (100 ≥ IC50(off-target)/IC50(MKK4) > 10) | +++ (IC50(off-target)/IC50(MKK4) > 100) | ++ (100 ≥ IC50(off-target)/IC50(MKK4) > 10)
12 | Cc1ncc(-c2cnc3[nH]cc(C(=O)c4ccc(F)c(NS(=O)(=O)CCC(F)(F)F)c4F)c3c2)cn1 [Example 147, N-(2,6-difluoro-3-(5-(2-methylpyrimidin-5-yl)-1H-pyrrolo[2,3-b]pyridine-3-carbonyl)phenyl)-3,3,3-trifluoropropane-1-sulfonamide] | < 100 | +++ (IC50(off-target)/IC50(MKK4) > 100) | +++ (IC50(off-target)/IC50(MKK4) > 100) | ++ (100 ≥ IC50(off-target)/IC50(MKK4) > 10)
13 | CCCS(=O)(=O)Nc1ccc(F)c(C(=O)c2c[nH]c3ncc(C(=O)NOCCO)cc23)c1F [Example 94, 3-(2,6-difluoro-3-(propylsulfonamido)benzoyl)-N-(2-hydroxyethoxy)-1H-pyrrolo[2,3-b]pyridine-5-carboxamide] | < 100 | + (10 ≥ IC50(off-target)/IC50(MKK4) > 3) | +++ (IC50(off-target)/IC50(MKK4) > 100) | ◯ (3 ≥ IC50(off-target)/IC50(MKK4))
